According to patent US6596756B1, “Treatment of fibromyalgia” (Eli Lilly and Company, priority 1999, dated 2003):
Like-named read-outs stand apart in the source and are kept apart here.

Legend:
[1] = tested on: mechanical allodynia due to the nerve ligation in rats; details: rat; for Allodynia Response: nerve ligation, mean ± SEM, p < 0.05 vs vehicle
Procedure: All data were analyzed using the JMP statistical program. […] Data were evaluated by one-way analysis of variance (ANOVA) and the appropriate contrasts analyzed by Tukey's test and Dunnett “t” test for two-sided comparisons.

[2] = tested on: formalin-induced paw-licking behavior in the rat; details: for Early Phase (sum of time spent licking, 0 to 5 minutes) / Late Phase (sum of seconds spent licking, 15 to 40 minutes): mean ± SEM
From the text: (Shibata, M., Ohkubo, T., Takahashi, H., and Inoki, R., “Modified formalin test: Characteristic biphasic pain response,” Pain (1989) 38: 347-352; and Tjolsen, A., Berge, O. G., Hunskaar, S., Rosland, J. H., and Hole, K., “The formalin test: an evaluation of the method,” Pain (1992) 51:5-17.) The effect of duloxetine on formalin-induced paw-licking behavior in the rat was investigated as an index of persistent nociceptive activation. In this test, the injection of formalin under the skin on the dorsal lateral surface of the hind paw of rats causes an immediate and intense increase in the spontaneous activity of C fiber afferents. This activation evokes a distinctly quantifiable behavior indicative of pain, such as licking, flinching, shaking or biting of the injected paw. The behavioral response to formalin is biphasic, with an early phase that is short lived, followed by an extended tonic response or late phase of persistent nociceptive activation. Mechanisms causing the late phase response, such as central sensitization of pain transmitting neurons, are currently believed to contribute to various types of persistent pains.
(§1) Male Sprague-Dawley rats (200-250 g; Charles River, Portage, Mich.) were maintained at constant temperature and light (12 h light/12 h dark) for 4-7 days prior to the studies. Animals had free access to food and water at all times prior to the day of the experiment.
The formalin test was performed in custom made Plexiglas® boxes 25×25×20 cm (length×width×height) in size. A mirror placed at the back of the box allowed the unhindered observation of the formalin injected paw. Rats were acclimatized individually in the cubicles at least 1 hour prior to the experiment. All testing was conducted between 08:00 and 14:00 hr and the testing room temperature was maintained at 21-23° C. Test compound was administered 30 or 60 minutes prior to the formalin injection. Formalin (50 μl of a 5% solution in saline) was injected subcutaneously into the dorsal lateral surface of the right hind paw with a 27 gauge needle. Observation started immediately after the formalin injection. Formalin-induced pain was quantified by recording in 5 minute intervals the number of formalin injected paw licking events and the number of seconds each licking event lasted. These recordings were made for 50 minutes after the formalin injection. After the experiment, animals were killed with an overdose of CO2. (Euthanasia protocol, Eli Lilly Animal Use and Care Committee.)
Scoring in the formalin test was performed according to Coderre et al., 1993b and Abbott et al., 1995. (Coderre T. J., Fundytus M. E., McKenna J. E., Dalal S. and Melzack R. “The formalin test: a validation of the weighted-scores method of the behavioral pain rating,” Pain(1993b) 54: 43-50; and Abbott F. V., Franklin K. B. J. and Westbrook R. F. “The formalin test: scoring properties of the first and second phases of the pain response in rats,” Pain (1995) 60: 91-102.) The sum of time spent licking in seconds from time 0 to 5 minutes was considered the early phase while the late phase was taken as the sum of seconds spent licking from 15 to 40 minutes.
Data are presented as means with standard errors of means (±SEM). Data were evaluated by one-way analysis of variance (ANOVA) and the appropriate contrasts analyzed by Tukey's test and Dunnett “t” test for two-sided comparisons.

Male Sprague-Dawley rats = details: rat; for Ataxia score 80 mins after drug, i.p. / Ataxia score, 30 mins after drug, i.p. / Ataxia Score, 60 mins after drug, p.o. / Ataxia score 110 mins after drug, p.o.: maximum score 40 seconds, mean ± SEM
Procedure: The tendency of duloxetine to induce ataxia or neuromuscular effects at analgesic doses was investigated using the well-known rotorod test.
as §1
An automated accelerating rotorod (Omnitech Electronics Inc., Columbus, Ohio) connected to an IBM PC computer was utilized. For training and testing purposes, the rotorod was set up to accelerate to 17 r.p.m. in 5 seconds and maintaining that speed for 40 seconds. Rats were given 3 training trials to learn to maintain posture on the rotorod prior to the actual day of drug testing. The following day, rotorod testing was conducted both at 30 and 80 minutes for i.p. and at 60 and 110 minutes for p.o. following administration of drug or compound.
All data were analyzed using the JMP statistical program. Data are presented as means with standard errors of means (±SEM). Data were evaluated by one-way analysis of variance (ANOVA) and the appropriate contrasts analyzed by Tukey's test and Dunnett “t” test for two-sided comparisons.

[3] = 3 mg/kg i.p., 30 min before formalin
[4] = 3 mg/kg p.o., 60 min before formalin

CNCCC(Oc1cccc2ccccc12)c1cccs1 (stereo not drawn) [duloxetine, N-methyl-3-(1-naphthalenyloxy)-3-(2-thienyl)propanamine]
effect on allodynia following partial ligation of the sciatic nerve (in words) ([1]; after acute or sub-chronic systemic administration): attenuates the allodynia | Allodynia Response ([1]; 15 mg/kg i.p., 1 hour pretreatment): 8.57 ± 1.72 g | Allodynia Response ([1]; 20 mg/kg p.o., 1 hour pretreatment): 8.53 ± 1.66 g | Allodynia Response ([1]; 20 mg/kg × 4 day p.o., sub-chronic pretreatment (once a day for four consecutive days)): 9.18 ± 2.95 g | Early Phase (sum of time spent licking, 0 to 5 minutes) [2, 3]: 32.78 ± 15.97 s | Late Phase (sum of seconds spent licking, 15 to 40 minutes) [2, 3]: 254.00 ± 45.87 s | Early Phase (sum of time spent licking, 0 to 5 minutes) [2, 4]: 21.78 ± 5.14 s | Late Phase (sum of seconds spent licking, 15 to 40 minutes) [2, 4]: 393.56 ± 26.74 s | Early Phase (sum of time spent licking, 0 to 5 minutes) ([2]; 10 mg/kg i.p., 30 min before formalin): 17.00 ± 5.83 s | Late Phase (sum of seconds spent licking, 15 to 40 minutes) ([2]; 10 mg/kg i.p., 30 min before formalin, p < 0.05 vs vehicle): 163.89 ± 54.14 s | Early Phase (sum of time spent licking, 0 to 5 minutes) ([2]; 10 mg/kg p.o., 60 min before formalin): 20.22 ± 5.29 s | Late Phase (sum of seconds spent licking, 15 to 40 minutes) ([2]; 10 mg/kg p.o., 60 min before formalin, p < 0.05 vs vehicle): 255.78 ± 38.22 s | Early Phase (sum of time spent licking, 0 to 5 minutes) ([2]; 15 mg/kg i.p., 30 min before formalin): 29.56 ± 16.30 s | Late Phase (sum of seconds spent licking, 15 to 40 minutes) ([2]; 15 mg/kg i.p., 30 min before formalin, p < 0.05 vs vehicle): 80.44 ± 36.22 s | Early Phase (sum of time spent licking, 0 to 5 minutes) ([2]; 20 mg/kg p.o., 60 min before formalin): 12.67 ± 3.61 s | Late Phase (sum of seconds spent licking, 15 to 40 minutes) ([2]; 20 mg/kg p.o., 60 min before formalin, p < 0.05 vs vehicle): 161.11 ± 31.77 s | effect on late phase response to formalin (in words) ([2]; i.p. and p.o. dosing): blocks the late phase response to formalin in a dose-dependent manner | Ataxia score 80 mins after drug, i.p. (Male Sprague-Dawley rats; 3 mg/kg i.p.): 33.35 ± 3.23 s | Ataxia score, 30 mins after drug, i.p. (Male Sprague-Dawley rats; 3 mg/kg i.p.): 34.27 ± 4.02 s | Ataxia Score, 60 mins after drug, p.o. (Male Sprague-Dawley rats; 3 mg/kg p.o.): 40.00 ± 0.00 s | Ataxia score 110 mins after drug, p.o. (Male Sprague-Dawley rats; 3 mg/kg p.o.): 40.00 ± 0.00 s | Ataxia score 80 mins after drug, i.p. (Male Sprague-Dawley rats; 10 mg/kg i.p.): 26.07 ± 6.24 s | Ataxia score, 30 mins after drug, i.p. (Male Sprague-Dawley rats; 10 mg/kg i.p.): 29.42 ± 6.71 s | Ataxia Score, 60 mins after drug, p.o. (Male Sprague-Dawley rats; 10 mg/kg p.o.): 39.11 ± 0.89 s | Ataxia score 110 mins after drug, p.o. (Male Sprague-Dawley rats; 10 mg/kg p.o.): 39.56 ± 0.44 s | Ataxia Score, 60 mins after drug, p.o. (Male Sprague-Dawley rats; 20 mg/kg p.o.): 40.00 ± 0.00 s | Ataxia score 110 mins after drug, p.o. (Male Sprague-Dawley rats; 20 mg/kg p.o.): 40.00 ± 0.00 s | Ataxia score 80 mins after drug, i.p. (Male Sprague-Dawley rats; 30 mg/kg i.p.): 25.52 ± 5.89 s | Ataxia score, 30 mins after drug, i.p. (Male Sprague-Dawley rats; 30 mg/kg i.p.): 24.75 ± 6.88 s | ataxia or neuromuscular effects in the rotorod test (in words) (Male Sprague-Dawley rats; at doses that caused analgesia): did not show ataxia or neuromuscular effects
